Data published in patent US20240018161A1, “MODULATORS OF CYSTIC FIBROSIS TRANSMEMBRANE CONDUCTANCE REGULATOR” (VERTEX PHARMACEUTICALS INCORPORATED, priority 2020, published 2024).
Read-outs that look alike come from different tables or passages of the source.

Columns and labels:
[1] = biological target: CFTR-mediated chloride transport in human intestinal epithelial enteroid cells (Homo sapiens, UniProt P13569); assay: Membrane potential dye, Enteroid Assay A; type: cell-based; conditions: for EC50: read-out: Ent. A EC50
Procedure, shortened: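 Membrane potential dye (20 μM methyl oxonol, with 30 μM CaCCinh-A01 and 30 μM Chicago Sky Blue) loaded 25 min at room temperature into ROCK-inhibitor-seeded human enteroid cells. Chloride-free stimulation buffer triggered transport, followed by 15 min fluorescence. % Activity relative to 3 μM/3 μM/300 nM triple-combination control.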

[2] = enteroid cells incubated with test compound 18-24 hours, acute 10 μM forskolin and 300 nM N-[2,4-bis(1,1-dimethylethyl)-5-hydroxyphenyl]-1,4-dihydro-4-oxoquinoline-3-carboxamide
[3] = percentage of chloride transport of triple combination control (3 μM N-[(6-amino-2-pyridyl)sulfonyl]-6-(3-fluoro-5-isobutoxy-phenyl)-2-[(4S)-2,2,4-trimethylpyrrolidin-1-yl]pyridine-3-carboxamide based)

Chain of CFTR-mediated chloride transport in human intestinal epithelial enteroid cells (P13569 with tags, fused parts or gaps DEL508-508): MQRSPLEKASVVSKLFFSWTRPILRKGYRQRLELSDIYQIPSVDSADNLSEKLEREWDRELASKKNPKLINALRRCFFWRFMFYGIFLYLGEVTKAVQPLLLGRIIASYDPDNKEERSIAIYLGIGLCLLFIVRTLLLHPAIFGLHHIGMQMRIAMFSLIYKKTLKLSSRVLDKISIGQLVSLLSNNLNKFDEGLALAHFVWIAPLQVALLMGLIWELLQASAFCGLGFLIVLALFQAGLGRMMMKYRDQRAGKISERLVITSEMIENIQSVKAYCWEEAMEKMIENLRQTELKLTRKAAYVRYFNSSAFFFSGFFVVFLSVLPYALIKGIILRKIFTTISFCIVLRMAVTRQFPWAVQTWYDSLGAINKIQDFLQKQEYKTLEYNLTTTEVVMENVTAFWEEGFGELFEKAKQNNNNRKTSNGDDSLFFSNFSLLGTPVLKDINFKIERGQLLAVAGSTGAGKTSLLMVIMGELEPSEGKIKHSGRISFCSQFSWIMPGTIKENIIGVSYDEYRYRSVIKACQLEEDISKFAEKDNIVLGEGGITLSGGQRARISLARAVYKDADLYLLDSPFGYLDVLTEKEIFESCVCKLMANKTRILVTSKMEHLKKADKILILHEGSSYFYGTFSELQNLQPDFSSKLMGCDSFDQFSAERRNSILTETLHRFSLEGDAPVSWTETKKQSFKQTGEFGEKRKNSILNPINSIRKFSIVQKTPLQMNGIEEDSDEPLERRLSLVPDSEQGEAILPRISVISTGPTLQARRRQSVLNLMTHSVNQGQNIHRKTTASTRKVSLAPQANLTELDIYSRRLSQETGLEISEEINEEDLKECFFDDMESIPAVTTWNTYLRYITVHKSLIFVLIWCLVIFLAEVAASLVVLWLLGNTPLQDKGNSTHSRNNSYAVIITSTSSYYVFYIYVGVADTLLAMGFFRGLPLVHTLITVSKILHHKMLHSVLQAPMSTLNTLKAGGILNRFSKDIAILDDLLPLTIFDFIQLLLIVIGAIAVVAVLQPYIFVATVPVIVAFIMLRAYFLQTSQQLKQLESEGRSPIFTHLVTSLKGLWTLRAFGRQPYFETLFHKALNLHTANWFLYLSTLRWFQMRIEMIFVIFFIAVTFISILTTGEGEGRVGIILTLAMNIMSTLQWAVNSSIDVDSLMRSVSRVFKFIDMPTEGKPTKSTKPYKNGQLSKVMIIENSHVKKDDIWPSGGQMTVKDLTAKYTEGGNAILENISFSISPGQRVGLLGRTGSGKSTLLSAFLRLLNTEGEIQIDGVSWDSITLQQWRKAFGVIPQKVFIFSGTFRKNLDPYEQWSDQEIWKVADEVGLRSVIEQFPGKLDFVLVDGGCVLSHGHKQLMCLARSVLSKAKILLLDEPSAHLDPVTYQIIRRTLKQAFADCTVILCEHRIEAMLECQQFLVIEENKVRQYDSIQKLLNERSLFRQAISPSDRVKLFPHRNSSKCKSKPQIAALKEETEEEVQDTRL

Compound | EC50 ([1]; Enteroid Assay A) [µM] | EC50 [1, 2] [µM] | Ent. A Max Activity (%) [1, 3] | Ent. A Max Activity (%) ([1]; Enteroid Assay A) | further results
Cc1cccc(C)c1-c1cc2nc(n1)NS(=O)(=O)c1cccc(c1)C(=O)N1Cc3cc(C(C)(C)C)ccc3[C@@H](O2)[C@H]1CC(C)(C)C [Compound 189, (16R,24R)-20-tert-butyl-12-(2,6-dimethylphenyl)-24-(2,2-dimethylpropyl)-15-oxa-8λ^6-thia-1,9,11,25-tetraazapentacyclo[14.7.1.13,7.110,14.017,22]hexacosa-3(26),4,6,10(25),11,13,17,19,21-nonaene-2,8,8-trione] | < 1 |  |  |  | ring closure, yield after HPLC (from Cc1cccc(C)c1-c1cc(O[C@@H]2c3ccc(C(C)(C)C)cc3CN[C@@H]2CC(C)(C)C)nc(NS(=O)(=O)c2cccc(C(=O)O)c2)n1, amide bond, 13-membered ring, HATU/NaOtBu, DMF/THF, 0.25 h, 2 steps): 0.35%
Cc1cccc(C)c1-c1cc2nc(n1)NS(=O)(=O)c1cccc(c1)C(=O)N1CCN(C(=O)OC(C)(C)C)CC1C(C)O2 (stereo not drawn) [Compound 173, tert-Butyl 13-(2,6-dimethylphenyl)-9-methyl-2,17,17-trioxo-10-oxa-17λ^6-thia-3,6,14,16,23-pentaazatetracyclo[16.3.1.111,15.03,8]tricosa-1(22),11,13,15(23),18,20-hexaene-6-carboxylate] |  | 1 to 3 | ++ (++ is 30-60%) |  | ring closure, yield after HPLC (from Cc1cccc(C)c1-c1cc(OC(C)C2CN(C(=O)OC(C)(C)C)CCN2)nc(NS(=O)(=O)c2cccc(C(=O)O)c2)n1, amide bond, 13-membered ring, HATU/DIEA, DMF, 10.9 mM, 25.0 °C, 0.5 h): 19%
Cc1cccc(C)c1-c1cc2nc(n1)NS(=O)(=O)c1cccc(c1)C(=O)N1CCN(C(=O)OC(C)(C)C)CC1C(Cc1ccccc1)O2 (stereo not drawn) [Compound 175, tert-butyl 9-benzyl-13-(2,6-dimethylphenyl)-2,17,17-trioxo-10-oxa-17λ^6-thia-3,6,14,16,23-pentaazatetracyclo[16.3.1.111,15.03,8]tricosa-1(22),11,13,15(23),18,20-hexaene-6-carboxylate] | < 1 |  |  | ++ (++ is 30-60%) | ring closure, yield after HPLC (from Cc1cccc(C)c1-c1cc(OC(Cc2ccccc2)C2CN(C(=O)OC(C)(C)C)CCN2)nc(NS(=O)(=O)c2cccc(C(=O)O)c2)n1, amide bond, 13-membered ring, HATU/DIEA, DMF, 10.8 mM, 25.0 °C, 0.083 h): 55%
Cc1cccc(C)c1-c1cc2nc(n1)NS(=O)(=O)c1cccc(c1)C(=O)N1CC(CN(Cc3ccccc3)[C@@H](CC(C)C)C1)O2 (stereo partly drawn) [Compound 107, (19S)-18-Benzyl-12-(2,6-dimethylphenyl)-19-(2-methylpropyl)-15-oxa-8λ^6-thia-1,9,11,18,22-pentaazatetracyclo[14.4.1.13,7.110,14]tricosa-3(23),4,6,10(22),11,13-hexaene-2,8,8-trione] | < 1 |  |  | +++ (+++ is >600%) | ring closure, yield after HPLC (from Cc1cccc(C)c1-c1cc(Cl)nc(NS(=O)(=O)c2cccc(C(=O)N3CC(O)CN(Cc4ccccc4)[C@@H](CC(C)C)C3)c2)n1, snar bond, 13-membered ring, NaH, DMF, 29.1 mM, 0.0 °C, 4.0 h): 3%
Cc1cccc(C)c1-c1cc2nc(n1)NS(=O)(=O)c1cccc(c1)C(=O)N1CCN(C(C)(C)C)C[C@H](C1)O2 [Compound 71, (16R)-18-tert-Butyl-12-(2,6-dimethylphenyl)-15-oxa-8λ^6-thia-1,9,11,18,22-pentaazatetracyclo[14.4.1.13,7.110,14]tricosa-3(23),4,6,10(22),11,13-hexaene-2,8,8-trione] | < 1 |  |  | +++ (+++ is >600%) | ring closure, yield after HPLC (from Cc1cccc(C)c1-c1cc(Cl)nc(NS(=O)(=O)c2cccc(C(=O)N3CCN(C(C)(C)C)C[C@@H](O)C3)c2)n1, snar bond, 13-membered ring, NaH, DMF, 33.9 mM, 25.0 °C, 4.17 h): 37%
Cc1cccc(C)c1-c1cc2nc(n1)NS(=O)(=O)c1cccc(n1)C(=O)N1CCN(CCC(C)(C)C)CC(C1)O2 (stereo not drawn) [Compound 70, 18-(3,3-Dimethylbutyl)-12-(2,6-dimethylphenyl)-15-oxa-8λ^6-thia-1,9,11,18,22,23-hexaazatetracyclo[14.4.1.13,7.110,14]tricosa-3,5,7(23),10,12,14(22)-hexaene-2,8,8-trione] |  |  |  | + (+ is <30%) | ring closure, yield after HPLC (from Cc1cccc(C)c1-c1cc(OC2CNCCN(CCC(C)(C)C)C2)nc(NS(=O)(=O)c2cccc(C(=O)O)n2)n1, amide bond, 13-membered ring, HATU/DIEA, DMF, 78.0 mM, 25.0 °C, 0.5 h, 2 steps): 1%
Cc1cccc(C)c1-c1cc2nc(n1)NS(=O)(=O)c1cccc(c1)C(=O)N1CCC(O2)c2ccccc2C1 (stereo not drawn) [Compound 227, 12-(2,6-dimethylphenyl)-15-oxa-8λ^6-thia-1,9,11,26-tetraazapentacyclo[14.7.2.13,7.110,14.017,22]heptacosa-3(27),4,6,10(26),11,13,17,19,21-nonaene-2,8,8-trione] |  | < 1 | ++ (++ is 30-60%) |  | ring closure, yield after HPLC (from Cc1cccc(C)c1-c1cc(OC2CCNCc3ccccc32)nc(NS(=O)(=O)c2cccc(C(=O)O)c2)n1, amide bond, 14-membered ring, HATU/DIEA, DMF, 13.1 mM, 25.0 °C, 0.083 h, 3 steps): 12%
Cc1cccc(C)c1-c1cc2nc(n1)NS(=O)(=O)c1cccc(c1)NC(=O)CN1CCCC(C1)O2 (stereo not drawn) [Compound 160, 5-(2,6-Dimethylphenyl)-2-oxa-9λ^6-thia-6,8,15,18,24-pentaazatetracyclo[16.3.1.13,7.110,14]tetracosa-3(24),4,6,10,12,14(23)-hexaene-9,9,16-trione] |  | 1 to 3 | + (+ is <300%) |  | ring closure, yield after HPLC (from Cc1cccc(C)c1-c1cc(OC2CCCN(CC(=O)Nc3cccc(S(N)(=O)=O)c3)C2)nc(Cl)n1, cn_pd bond, 15-membered ring, Pd(OAc)2/Xantphos/Cs2CO3, dioxane, 20.1 mM, 100.0 °C, 16.0 h): 17%
Cc1cccc(C)c1-c1cc2nc(n1)NS(=O)(=O)c1cccc(c1)C(=O)N1CCN(CCC3(C(F)(F)F)CC3)CC1CO2 (stereo not drawn) [Compound 170, 13-(2,6-Dimethylphenyl)-6-{2-[1-(trifluoromethyl)cyclopropyl]ethyl}-10-oxa-17λ^6-thia-3,6,14,16,23-pentaazatetracyclo[16.3.1.111,15.03,8]tricosa-1(22),11,13,15(23),18,20-hexaene-2,17,17-trione] |  | < 1 | ++ (++ is 30-60%) |  | ring closure, yield after HPLC (from Cc1cccc(C)c1-c1cc(OCC2CN(CCC3(C(F)(F)F)CC3)CCN2)nc(NS(=O)(=O)c2cccc(C(=O)O)c2)n1, amide bond, 13-membered ring, HATU/DIEA, DMF, 18.7 mM, 25.0 °C, 1.0 h, 3 steps): 14%
Cc1cccc(C)c1-c1cc2nc(n1)NS(=O)(=O)c1cccc(c1)C(=O)N1CC(CCc3ccccc31)O2 (stereo not drawn) [Compound 228, 5-(2,6-Dimethylphenyl)-2-oxa-9λ^6-thia-6,8,16,27-tetraazapentacyclo[14.8.1.13,7.110,14.017,22]heptacosa-3(27),4,6,10,12,14(26),17(22),18,20-nonaene-9,9,15-trione] | 1 to 3 |  |  | ++ (++ is 30-60%) | ring closure, yield after HPLC (from Cc1cccc(C)c1-c1cc(Cl)nc(NS(=O)(=O)c2cccc(C(=O)N3CC(O)CCc4ccccc43)c2)n1, snar bond, 13-membered ring, NaH, DMF, 21.9 mM, 25.0 °C, 48.0 h): 15%
Cc1cccc(C)c1-c1cc2nc(n1)NS(=O)(=O)c1cccc(c1)C(=O)N1Cc3cnccc3C(C1)O2 (stereo not drawn) [Compound 194, 12-(2,6-Dimethylphenyl)-15-oxa-8λ^6-thia-1,9,11,20,25-pentaazapentacyclo[14.7.1.13,7.110,14.017,22]hexacosa-3(26),4,6,10,12,14(25),17,19,21-nonaene-2,8,8-trione] |  | 3 to 30 | ++ (++ is 30-60%) |  | ring closure, yield after HPLC (from Cc1cccc(C)c1-c1cc(OC2CNCc3cnccc32)nc(NS(=O)(=O)c2cccc(C(=O)O)c2)n1, amide bond, 13-membered ring, HATU/DIEA, DMF, 19.0 mM, 0.5 h, 3 steps): 1%
Cc1ccccc1-c1cc2nc(n1)NS(=O)(=O)c1cccc(c1)C(=O)N1Cc3ccccc3[C@@H](O2)[C@H]1CC(C)C [Compound 192, (16R,24R)-12-(2-Methylphenyl)-24-(2-methylpropyl)-15-oxa-8λ^6-thia-1,9,11,25-tetraazapentacyclo[14.7.1.13,7.110,14.017,22]hexacosa-3(26),4,6,10,12,14(25),17,19,21-nonaene-2,8,8-trione] | < 1 |  |  |  | ring closure, yield after HPLC (from Cc1ccccc1-c1cc(O[C@@H]2c3ccccc3CN[C@@H]2CC(C)C)nc(NS(=O)(=O)c2cccc(C(=O)O)c2)n1, amide bond, 13-membered ring, HATU/DIEA, DMF, 424.0 mM, 0.5 h, 3 steps): 9%
Cc1cccc(C)c1-c1cc2nc(n1)NS(=O)(=O)c1cccc(c1)C(=O)N1CC[C@@H](C1)O2 [Compound 213, (3S)-17-(2,6-Dimethylphenyl)-2-oxa-13λ^6-thia-6,14,16,19-tetraazatetracyclo[13.3.1.13,6.18,12]henicosa-1(19),8(20),9,11,15,17-hexaene-7,13,13-trione] |  | 3 to 30 | +++ (+++ is >60%) |  | ring closure, yield after HPLC (from Cc1cccc(C)c1-c1cc(O[C@H]2CCNC2)nc(NS(=O)(=O)c2cccc(C(=O)O)c2)n1, amide bond, 13-membered ring, HATU/TEA, DMF, 53.7 mM, 25.0 °C, 1.0 h): 20%
